Measured values: patent US20060094737A1, “Novel uracil derivatives and medicinal use thereof” (Sumitomo Pharmaceuticals CO. Ltd., priority 2002, published 2006)

What was measured:
[1] = tested on: itch-related behavior induced by substance P; assay: Inhibitory effect on the itch-related behavior of mice induced by substance P; format: in vivo, BALB/c strain male mice; details: frequency counted for 60 minutes, vs 0.5% CMC-Na group
Method: It has been reported that in the lesion part of a patient with atopic dermatitis, there are observed an increase in nerve fiber containing substance P (SP), a nerve peptide (Tobin D et al., J Allergy Clin immunol, 90, 613-22(1992)) and an increase in reactivity with SP (Gianetti A et al. Br J Dermatol, 121, 681-8(1989)). On the other hand, it has been reported that when SP is administered to the cervicodorsal part of a mouse, itch-related behavior is induced (Kuraishi Y et al. Eur J Pharmacol, 275, 229-33(1995)) and is suppressed by a certain antiallergic agent (Inagaki N et al. Eur J Pharmacol, 400, 73-9(2000)). Therefore, in order to verify the itch-inhibiting effect of the uracil derivatives of the present invention, the itch-inhibiting effect was evaluated by employing the effect of the uracil derivatives on itch-related behavior induced by SP, as an indication. Each of BALB/c strain male mice was previously transferred to a cage for observation and allowed to acclimate to an observation environment, and then SP was subcutaneously administered (200 μg/mouse) to the cervicodorsal part of the mouse. After the administration, the mouse was returned to the cage for observation and the frequency of its itch-related behavior was measured for 60 minutes after the return. Each test drug was suspended in a 0.5% CMC-Na solution and orally administered in a dose of 10 mg/kg 30 minutes before the administration of SP. For evaluating the itch-inhibiting effect, the inhibition rate of the test drug was calculated as an indication as follows by comparison with a group treated with a 0.5% CMC-Na solution. As a comparative example, an antiallergic agent Oxatomide, which is considered as an agent having itch-inhibiting effect, was administered in a dose of 3 times that of the test drug (30 mg/kg). [formula]

[2] = tested on: dermatitis induced by picryl chloride (type IV allergic inflammation); assay: Inhibitory effect on dermatitis induced by picryl chloride, test compound applied on the ear; format: in vivo, ICR strain male mice; details: 0.04 ml of 0.25% (w/v) test compound/acetone on the ear; ear thickness 24 hours after the causing; relative to 2.5% (w/v) comparative compound 1 (10 times the amount)
Method: In order to verify the inflammation-inhibiting effect of the uracil derivative of the present invention, its effect on dermatitis induced by picryl chloride, a model of typical type IV allergic inflammation was evaluated by adopting the method of Asherson et al. (Immunology, 15, 405 (1968)). On the abdominal skin of each of ICR strain male mice was applied 0.1 ml of a 7% (w/v) picryl chloride/acetone solution to induce sensitization. On the seventh days after the sensitization, 0.02 ml of a 1% (w/v) picryl chloride/acetone solution was applied on the ear of each mouse to cause an allergic reaction. […] Twenty-four hours after the causing, the thickness of the ear was measured and the dermatitis-inhibiting effect of the test compound was evaluated by employing the difference between the thickness of the ear 24 hours after the causing and that before the causing as an indication. […]
From the difference of the ear thickness before and after the causing of the allergic reaction in the case of each group, the relative degree of efficacy of the test compound in the inhibition of ear enlargement was calculated according to the following equation by comparison with a group treated with the comparative compound in an amount of 10 times that of the test compound: [formula]

[3] = tested on: dermatitis induced by picryl chloride (type IV allergic inflammation); assay: Inhibitory effect on dermatitis induced by picryl chloride, oral administration; format: in vivo, ICR strain male mice; details: oral 10 mg/kg in 0.5% CMC-Na one hour before the causing; relative to comparative compound 1 oral 100 mg/kg
Method: The effect on the animal model in Evaluation Example 1 was verified by oral administration. ICR strain male mice were sensitized in the same manner as in Evaluation Example 1, and on the seventh days after the sensitization, 0.02 ml of a 1% (w/v) picryl chloride/acetone solution was applied on the ear of each mouse to cause an allergic reaction. Each test compound was suspended in a 0.5% CMC-Na solution and orally administered in a dose of 10 mg/kg one hour before the causing of the allergic reaction. As a comparative example, the above-mentioned comparative compound 1 disclosed in Japanese Patent No. 3093170 was orally administered in a dose of 100 mg/kg to make a comparison.

[4] = oral 10 mg/kg 30 minutes before SP (200 μg/mouse s.c.)

Row | SMILES | Degree of efficacy (relative degree of efficacy in the inhibition of ear enlargement) [3] | other results
1 | Cc1c(O)c(C)c(C(=O)Nc2c(N)n(-c3cccc4ccccc34)c(=O)n(C)c2=O)c2c1CCC(C)(C)O2 [Example 2, 6-amino-5-(6-hydroxy-2,2,5,7-tetramethyl-chroman-8-carboxamide)-3-methyl-1-(1-naphthyl)uracil] |  | Inhibition rate (%) of itch-related behavior [1, 4]: 71%
2 | Cc1cc(OCC(=O)Nc2c(N)n(-c3cccc4ccccc34)c(=O)n(C)c2=O)c(C)c(C)c1O [Example 4, 6-amino-5-[(4-hydroxy-2,3,5-trimethyl)phenoxy]acetamide-3-methyl-1-(1-naphthyl)uracil] |  | Degree of efficacy (relative degree of efficacy in the inhibition of ear enlargement) [2]: 0.9
3 | Cc1cc(OCC(=O)Nc2c(N)n(-c3cccc4ccccc34)c(=O)n(C)c2=O)c(C)c(C)c1N [Example 5, 6-amino-5-[(4-amino-2,3,5-trimethyl)phenoxy]acetamide-3-methyl-1-(1-naphthyl)uracil] |  | Degree of efficacy (relative degree of efficacy in the inhibition of ear enlargement) [2]: 1.1; Inhibition rate (%) of itch-related behavior [1, 4]: 53%
4 | CCn1c(=O)c(NC(=O)c2c(C)c(O)c(C)c3c2OC(C)(C)CC3)c(N)n(-c2cccnc2OC)c1=O [Example 10, 6-amino-3-ethyl-5-(6-hydroxy-2,2,5,7-tetramethylchroman-8-carboxamide)-1-(2-methoxypyridin-3-yl)uracil] | 1.6 | 
5 | CCCCn1c(=O)c(NC(=O)c2c(C)c(O)c(C)c3c2OC(C)(C)C3)c(N)n(-c2cccc3ccccc23)c1=O [Example 14, 6-amino-3-butyl-5-(6-hydroxy-2,2,5,7-tetramethyl-3-oxaindan-4-carboxamide)-1-(1-naphthyl)uracil] | 1.0 | 
6 | CCn1c(=O)c(NC(=O)c2c(C)c(O)c(C)c3c2OC(C)(C)C3)c(N)n(-c2cccc3c2CCC3)c1=O [Example 20, 6-amino-3-ethyl-5-(6-hydroxy-2,2,5,7-tetramethyl-3-oxaindan-4-carboxamide)-1-(4-indanyl)uracil] | 1.2 | 
7 | Cc1c(O)c(C)c(C(=O)Nc2c(N)n(-c3cccc4c3CCCC4)c(=O)n(C)c2=O)c2c1CC(C)(C)O2 [Example 22, 6-amino-3-methyl-5-(6-hydroxy-2,2,5,7-tetramethyl-3-oxaindan-4-carboxamide)-1-(5,6,7,8-tetrahydro-1-naphthyl)uracil] | 1.3 | 
8 | Cc1cccc(-n2c(N)c(NC(=O)COc3cc(C)c(N)c(C)c3C)c(=O)n(C)c2=O)c1C [Example 29, 6-amino-5-[(4-amino-2,3,5-trimethyl)phenoxy]acetamide-3-methyl-1-(2,3-dimethylphenyl)uracil] | 1.4 | 
9 | CNc1c(NC(=O)COc2cc(C)c(N)c(C)c2C)c(=O)n(C)c(=O)n1-c1cccc(C)c1C [Example 30, 6-methylamino-5-[(4-amino-2,3,5-trimethyl)phenoxy]acetamide-3-methyl-1-(2,3-dimethylphenyl)uracil] | 1.6 | 
10 | O=c1[nH]c2ccccc2n1CCCN1CCN(C(c2ccccc2)c2ccccc2)CC1 [Oxatomide, reference compound] |  | Inhibition rate (%) of itch-related behavior ([1]; oral 30 mg/kg 30 minutes before SP (200 μg/mouse s.c.)): 39%
